Assay results: ChEMBL document CHEMBL1201862, “PubChem BioAssay data set” (2004)
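Grown in 96-well plates, cells were treated for 48 hours with each compound at five concentrations. Insufficient inhibition: endpoint recorded as highest concentration tested. At the GI50, growth is halved.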 The source made the active and inactive calls. No stated cut-off is given here; in the data, active = GI50 up to about 1.1 µM and inactive = higher.

Tests used:
Experiment in all cases: NCI tumour cell line growth inhibition, 48 h
[1] = system: SW-620
[2] = system: LOX IMVI
[3] = system: M14
[4] = system: SF-268
[5] = system: MDA-N
[6] = system: SK-MEL-5
[7] = system: NCI-H226
[8] = system: A549
[9] = system: CCRF-CEM
[10] = system: COLO 205
[11] = system: BT-549
[12] = system: SK-MEL-2
[13] = system: SN12C
[14] = system: UACC-257
[15] = system: MOLT-4
[16] = system: OVCAR-8
[17] = system: A498
[18] = system: RPMI-8226
[19] = system: HL-60
[20] = system: SR

SMILES | GI50 [1] | GI50 [2] | GI50 [3] | GI50 [4] | GI50 [5] | GI50 [6] | GI50 [7] | GI50 [8] | GI50 [9] | GI50 [10] | GI50 [11] | GI50 [12] | GI50 [13] | GI50 [14] | GI50 [15] | GI50 [16] | GI50 [17] | GI50 [18] | GI50 [19] | GI50 [20]
CCOC(=O)c1sc2nc(SC)nc3c2c1NCN3c1ccccc1Cl | 80.2 µM (inactive) | 35.6 µM (inactive) | > 100 µM (inactive) | 38.7 µM (inactive) | 71.4 µM (inactive) | 31.5 µM (inactive) | > 100 µM (inactive) | 38.7 µM (inactive) | > 100 µM (inactive) | > 100 µM (inactive) | 42.7 µM (inactive) | 97.3 µM (inactive) | > 100 µM (inactive) | 48.8 µM (inactive) | > 100 µM (inactive) | 31.7 µM (inactive) | 37.8 µM (inactive) | > 100 µM (inactive) |  | 
COC(=O)C1(C(=O)OC)CC2=C(S(=O)(=O)c3ccccc3)C[C@@H](C#N)[C@H]2C1 | > 100 µM (inactive) | > 100 µM (inactive) | > 100 µM (inactive) | > 100 µM (inactive) | > 100 µM (inactive) | > 100 µM (inactive) | > 100 µM (inactive) | > 100 µM (inactive) | > 100 µM (inactive) | > 100 µM (inactive) | 71.8 µM (inactive) | > 100 µM (inactive) | > 100 µM (inactive) | > 100 µM (inactive) | > 100 µM (inactive) | > 100 µM (inactive) | > 100 µM (inactive) |  | > 100 µM (inactive) | 
CCCCC(C)(C/C=C/[C@@H]1[C@@H](C(O)CCCCCC(=O)OC)C(=O)C[C@H]1O[Si](C)(C)C(C)(C)C)O[Si](C)(C)C (stereo not given in full) | 59.3 µM (inactive) | 45.3 µM (inactive) | > 100 µM (inactive) | 39.1 µM (inactive) |  | 92.7 µM (inactive) | > 100 µM (inactive) | 70.8 µM (inactive) | 25.8 µM (inactive) | > 100 µM (inactive) | > 100 µM (inactive) | 58.7 µM (inactive) | > 100 µM (inactive) | 62.1 µM (inactive) | 19.7 µM (inactive) | > 100 µM (inactive) |  | 31.2 µM (inactive) |  | 25.3 µM (inactive)
CC(C)(C)c1cc([N+](=O)[O-])cc([N+](=O)[O-])c1O [DINOTERB] | > 10 µM (inactive) | > 10 µM (inactive) | > 10 µM (inactive) | > 10 µM (inactive) | > 10 µM (inactive) | 6.47 µM (inactive) | > 10 µM (inactive) | 7.64 µM (inactive) | > 10 µM (inactive) | > 10 µM (inactive) |  | > 10 µM (inactive) | > 10 µM (inactive) | 8.57 µM (inactive) | > 10 µM (inactive) | > 10 µM (inactive) |  | 4.12 µM (inactive) | > 10 µM (inactive) | > 10 µM (inactive)
O=C1/C(=C/c2cccc3ccccc23)Cc2ccccc21 | 31.6 µM (inactive) | 34.4 µM (inactive) | 59.2 µM (inactive) | 22.6 µM (inactive) |  | 29.9 µM (inactive) | 10.5 µM (inactive) | 38.4 µM (inactive) | 59.2 µM (inactive) |  | 13.2 µM (inactive) |  | 49.5 µM (inactive) |  | 40.5 µM (inactive) | 53.8 µM (inactive) | 37 µM (inactive) | 51.9 µM (inactive) | 28.4 µM (inactive) | 57.3 µM (inactive)
COc1cc(C2SCC(=O)N2NC(=O)c2ccc(NC(C)=O)cc2)cc(OC)c1OC (stereo not given) | > 100 µM (inactive) |  | > 100 µM (inactive) | > 100 µM (inactive) |  | > 100 µM (inactive) | > 100 µM (inactive) | > 100 µM (inactive) |  | > 100 µM (inactive) | > 100 µM (inactive) | > 100 µM (inactive) | > 100 µM (inactive) | > 100 µM (inactive) | > 100 µM (inactive) | > 100 µM (inactive) | > 100 µM (inactive) | > 100 µM (inactive) | > 100 µM (inactive) | 
Cc1ccc2c(c1)CC1(Cc3ccccc3C1=O)C2=O (stereo not given) | > 100 µM (inactive) | > 100 µM (inactive) | > 100 µM (inactive) | > 100 µM (inactive) | > 100 µM (inactive) | > 100 µM (inactive) | > 100 µM (inactive) | > 100 µM (inactive) | > 100 µM (inactive) | > 100 µM (inactive) |  |  | > 100 µM (inactive) | > 100 µM (inactive) | > 100 µM (inactive) | > 100 µM (inactive) | > 100 µM (inactive) | > 100 µM (inactive) | > 100 µM (inactive) | > 100 µM (inactive)
COC1(OC)C[C@H](C)[C@@]23O[C@]24c2cc(O)c5c(c2N[C@H]3C#C/C=C\C#C[C@]14O)C(=O)c1ccccc1C5=O | 0.005 µM (active) | 0.005 µM (active) | 0.005 µM (active) | 0.005 µM (active) | 0.00597 µM (active) | 0.005 µM (active) | 0.005 µM (active) | 0.005 µM (active) | < 0.001 µM (active) | 0.005 µM (active) | 0.00519 µM (active) |  | 0.00136 µM (active) | 0.005 µM (active) |  | 0.005 µM (active) | 0.00119 µM (active) | 0.005 µM (active) |  | 
O=[N+]([O-])/C(C(Cl)=C(Cl)Cl)=C1/OCCS1 |  | 21.4 µM (inactive) | 46.7 µM (inactive) | 25.5 µM (inactive) | 41.6 µM (inactive) | 19.1 µM (inactive) | 30.2 µM (inactive) | 23.3 µM (inactive) | 15.9 µM (inactive) | 19.8 µM (inactive) |  | 27.7 µM (inactive) | 23 µM (inactive) | 27.7 µM (inactive) | 17.9 µM (inactive) | 16.8 µM (inactive) | 20.3 µM (inactive) | 22.9 µM (inactive) | 16.9 µM (inactive) | 30.1 µM (inactive)
O=C1CC(c2ccc(O)cc2)C2(O1)C(=O)OC(C(O)CO)C2O (stereo not given) | > 100 µM (inactive) | > 100 µM (inactive) | > 100 µM (inactive) | > 100 µM (inactive) |  | > 100 µM (inactive) | > 100 µM (inactive) |  | > 100 µM (inactive) | > 100 µM (inactive) | > 100 µM (inactive) | > 100 µM (inactive) | > 100 µM (inactive) | > 100 µM (inactive) | > 100 µM (inactive) | > 100 µM (inactive) | > 100 µM (inactive) | > 100 µM (inactive) | > 100 µM (inactive) | 
Cn1cc2ccccc2c1-c1nc(F)nc(OCC(=O)[C@H]2CCC3[C@@H]4CCC5=CC(=O)CC[C@]5(C)C4[C@@H](O)C[C@@]32C)n1 (stereo not given in full) | 8.04 µM (inactive) | 4.66 µM (inactive) | 20.3 µM (inactive) | 13.1 µM (inactive) |  | 20.3 µM (inactive) | 19.2 µM (inactive) | 32.4 µM (inactive) | 4.31 µM (inactive) | 20 µM (inactive) |  | 13.2 µM (inactive) | 15.7 µM (inactive) | 18.8 µM (inactive) | 4.83 µM (inactive) | 7.13 µM (inactive) | 17.3 µM (inactive) | 6.61 µM (inactive) | 6.27 µM (inactive) | 2.86 µM (inactive)
COC(=O)c1c2cccccc-2c(Cc2c3cccccc-3c(C(=O)OC)c2O)c1O | > 100 µM (inactive) | > 100 µM (inactive) | > 100 µM (inactive) | > 100 µM (inactive) |  | > 100 µM (inactive) | > 100 µM (inactive) | > 100 µM (inactive) | > 100 µM (inactive) | > 100 µM (inactive) |  | > 100 µM (inactive) | > 100 µM (inactive) | > 100 µM (inactive) | > 100 µM (inactive) | > 100 µM (inactive) | > 100 µM (inactive) | > 100 µM (inactive) | > 100 µM (inactive) | > 100 µM (inactive)
CCN(CC)C(=S)SCC(=O)Nc1nc2c(s1)CCCC2 | > 100 µM (inactive) | 57 µM (inactive) | > 100 µM (inactive) | > 100 µM (inactive) |  | 26 µM (inactive) | > 100 µM (inactive) | > 100 µM (inactive) | 49.4 µM (inactive) | 95.1 µM (inactive) |  | > 100 µM (inactive) | > 100 µM (inactive) | 36.9 µM (inactive) | 41.4 µM (inactive) | > 100 µM (inactive) | > 100 µM (inactive) | > 100 µM (inactive) | 19.4 µM (inactive) | 27.6 µM (inactive)
COc1ccc2[nH]c3c4c(cc(-c5ccccc5)c3c2c1)C(=O)N(c1ccccc1)C4=O | 11.4 µM (inactive) | 16.1 µM (inactive) | 19.3 µM (inactive) | 23.1 µM (inactive) |  | 12.3 µM (inactive) | 25.1 µM (inactive) | 13.8 µM (inactive) | 4.97 µM (inactive) | 17.7 µM (inactive) |  | 21.3 µM (inactive) | 21.5 µM (inactive) | 35.3 µM (inactive) | 19.5 µM (inactive) | 6.05 µM (inactive) | > 45.6 µM (inactive) | > 60 µM (inactive) | 38.5 µM (inactive) | 1.77 µM (inactive)
OC(C/C=N/Nc1ccccc1)(C(F)(F)Cl)C(F)(F)Cl | > 10 µM (inactive) | > 10 µM (inactive) | > 10 µM (inactive) | > 10 µM (inactive) | > 10 µM (inactive) | > 10 µM (inactive) | 7.38 µM (inactive) | > 10 µM (inactive) | > 10 µM (inactive) | > 10 µM (inactive) |  | > 10 µM (inactive) | > 10 µM (inactive) | > 10 µM (inactive) |  | > 10 µM (inactive) | > 10 µM (inactive) |  | > 10 µM (inactive) | 
Cc1n[nH]c(=O)n1/N=C/c1c[nH]c2ccccc12 | > 100 µM (inactive) |  | > 100 µM (inactive) | > 100 µM (inactive) |  |  |  | > 100 µM (inactive) | > 100 µM (inactive) | > 100 µM (inactive) | 38.4 µM (inactive) | > 100 µM (inactive) | > 100 µM (inactive) | > 100 µM (inactive) | > 100 µM (inactive) | > 100 µM (inactive) | > 100 µM (inactive) | > 100 µM (inactive) |  | > 100 µM (inactive)
